In patent publication US12606541B2, “PPARg modulators and methods of use” (Eisai R&D Management Co., Ltd., priority 2020, dated 2026):
Where two headings read alike, the source gives them in different places.

Molecular target: T1, His6-TEV-PPARγ-(234-505) (Homo sapiens, UniProt P37231)
T1 construct: The His6-TEV-PPARγ-(234-505) protein for assay was expressed and purified; TEV cleavage site (N); made in house
T1 sequence (P37231 234-505): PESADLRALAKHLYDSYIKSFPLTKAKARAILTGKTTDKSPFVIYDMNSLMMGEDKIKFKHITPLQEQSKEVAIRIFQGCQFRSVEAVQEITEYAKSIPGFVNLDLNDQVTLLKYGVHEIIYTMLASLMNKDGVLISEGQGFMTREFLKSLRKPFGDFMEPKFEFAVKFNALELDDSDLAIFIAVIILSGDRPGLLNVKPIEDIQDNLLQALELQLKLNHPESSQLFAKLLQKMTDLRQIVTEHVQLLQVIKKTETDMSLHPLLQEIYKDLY
Assay: TR-FRET Assay to Measure Co-R Peptide Recruitment to PPARγ
Assay type: biochemical
Procedure, shortened: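 Corepressor recruitment is measured by adding terbium-labeled anti-His antibody and FITC SMRT-ID2 peptide, at 5 and 200 nM final, after a 20-minute room-temperature protein–compound incubation. After one further hour, signal is converted to percent response between DMSO and 500 nM T0070907 wells.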

[1] = Co-R peptide recruitment to PPARγ, read-out: TR-FRET AC50

## COc1cc(-c2cc(C(=O)N3CCC(C(=O)NCc4cccc(Cl)c4)C4C3C4(F)F)n[nH]2)c(Cl)cn1 (stereo not shown) [2-[5-(5-chloro-2-methoxypyridin-4-yl)-1H-pyrazole-3-carbonyl]-N-[(3-chlorophenyl)methyl]-7,7-difluoro-2-azabicyclo[4.1.0]heptane-5-carboxamide]
[1]
  AC50: > 1000 nM

## O=C(c1cc(-c2ccncc2)[nH]n1)N1CCC(C(=O)N2CCc3ccccc3C2)CC1 [2-{1-[5-(pyridin-4-yl)-1H-pyrazole-3-carbonyl]piperidine-4-carbonyl}-1,2,3,4-tetrahydroisoquinoline]
[1]
  AC50: > 1000 nM

## COc1cc(-c2cc(C(=O)N3CCC4(C(=O)NCc5cccc(Cl)c5)CC4C3)n[nH]2)c(Cl)cn1 (stereo not shown) [3-[5-(5-chloro-2-methoxypyridin-4-yl)-1H-pyrazole-3-carbonyl]-N-[(3-chlorophenyl)methyl]-3-azabicyclo[4.1.0]heptane-6-carboxamide]
[1]
  AC50: > 1000 nM

## O=C(c1cc(-c2ccncc2)[nH]n1)N1CCC(C(=O)N2CCOCC2)CC1 [4-{1-[5-(pyridin-4-yl)-1H-pyrazole-3-carbonyl]piperidine-4-carbonyl}morpholine]
[1]
  AC50: > 1000 nM

## CC1CCN(C(=O)C2CCN(C(=O)c3cc(-c4ccncc4)[nH]n3)CC2)CC1 [4-{3-[4-(4-methylpiperidine-1-carbonyl)piperidine-1-carbonyl]-1H-pyrazol-5-yl}pyridine]
[1]
  AC50: > 1000 nM

## O=C(c1cc(-c2ccncc2)[nH]n1)N1CCC(C(=O)N2CCC(c3ccccc3)CC2)CC1 [4-{3-[4-(4-phenylpiperidine-1-carbonyl)piperidine-1-carbonyl]-1H-pyrazol-5-yl}pyridine]
[1]
  AC50: > 1000 nM

## O=C(c1cc(-c2ccncc2)[nH]n1)N1CCC(C(=O)N2CCCCC2)CC1 [4-{3-[4-(piperidine-1-carbonyl)piperidine-1-carbonyl]-1H-pyrazol-5-yl}pyridine]
[1]
  AC50: > 1000 nM

## COc1cc(-c2cc(C(=O)N3CC4COCC(C3)C4C(=O)NCc3cccc(Cl)c3)n[nH]2)c(Cl)cn1 (stereo not shown) [7-[5-(5-chloro-2-methoxypyridin-4-yl)-1H-pyrazole-3-carbonyl]-N-[(3-chlorophenyl)methyl]-3-oxa-7-azabicyclo[3.3.1]nonane-9-carboxamide]
[1]
  AC50: > 1000 nM

## O=C(c1cc(-c2ccncc2)[nH]n1)N1CCC(C(=O)N2CC[C@@H](O)C2)CC1 [(3R)-1-{1-[5-(pyridin-4-yl)-1H-pyrazole-3-carbonyl]piperidine-4-carbonyl}pyrrolidin-3-ol]
[1]
  AC50: > 1000 nM

## CN(C)[C@@H]1CCN(C(=O)C2CCN(C(=O)c3cc(-c4ccncc4)[nH]n3)CC2)C1 [(3R)—N,N-dimethyl-1-{1-[5-(pyridin-4-yl)-1H-pyrazole-3-carbonyl]piperidine-4-carbonyl}pyrrolidin-3-amine]
[1]
  AC50: > 1000 nM

## COc1cc(-c2cc(C(=O)N3CCC[C@@H](C(=O)NCc4cccc(Cl)c4)C3)n[nH]2)c(F)cn1 [(3R)—N-[(3-chlorophenyl)methyl]-1-[5-(5-fluoro-2-methoxypyridin-4-yl)-1H-pyrazole-3-carbonyl]piperidine-3-carboxamide]
[1]
  AC50: > 1000 nM

## CN(C)[C@H]1CCN(C(=O)C2CCN(C(=O)c3cc(-c4ccncc4)[nH]n3)CC2)C1 [(3S)—N,N-dimethyl-1-{1-[5-(pyridin-4-yl)-1H-pyrazole-3-carbonyl]piperidine-4-carbonyl}pyrrolidin-3-amine]
[1]
  AC50: > 1000 nM

## COc1cc(-c2cc(C(=O)N3CCC[C@H](C(=O)NCc4cccc(Cl)c4)C3)n[nH]2)c(F)cn1 [(3S)—N-[(3-chlorophenyl)methyl]-1-[5-(5-fluoro-2-methoxypyridin-4-yl)-1H-pyrazole-3-carbonyl]piperidine-3-carboxamide]
[1]
  AC50: > 1000 nM

## COc1cc(-c2cc(C(=O)N3CC[C@@H](C(=O)NC4CCS(=N)(=O)CC4)CC34CC4)n[nH]2)c(F)cn1 (stereo partly drawn) [(7R)-4-[5-(5-fluoro-2-methoxypyridin-4-yl)-1H-pyrazole-3-carbonyl]-N-(1-imino-1-oxo-1λ^6-thian-4-yl)-4-azaspiro[2.5]octane-7-carboxamide]
[1]
  AC50: > 1000 nM

## COc1cc(-c2cc(C(=O)N3CC[C@H](C(=O)N[C@@H]4CN(c5ccc(C)nc5)C[C@@H]4F)CC34CC4)n[nH]2)c(F)cn1 [(7S)—N-[(3R,4S)-4-fluoro-1-(6-methylpyridin-3-yl)pyrrolidin-3-yl]-4-[5-(5-fluoro-2-methoxypyridin-4-yl)-1H-pyrazole-3-carbonyl]-4-azaspiro[2.5]octane-7-carboxamide]
[1]
  AC50: > 1000 nM

## COc1cc(-c2cc(C(=O)N3CCC(C(=O)N[C@H]4CC[C@@H](C)CC4)CC3)n[nH]2)ccn1 [Example 107, 1-(5-(2-methoxypyridin-4-yl)-1H-pyrazole-3-carbonyl)-N-((1s,4s)-4-methylcyclohexyl)piperidine-4-carboxamide]
Co-R peptide (SMRT-ID2) recruitment, top final concentration 20 μM, read-out: TR-FRET i-Ag, AC50
  AC50: 342 nM

## O=C(Nc1ncco1)C1CCN(C(=O)c2cc(-c3ccncc3)[nH]n2)CC1 [N-(1,3-oxazol-2-yl)-1-[5-(pyridin-4-yl)-1H-pyrazole-3-carbonyl]piperidine-4-carboxamide]
[1]
  AC50: > 1000 nM

## COc1cc(-c2cc(C(=O)N3CCC(C(=O)NC4CCN(C(C)=O)C4)CC3)n[nH]2)c(Cl)cn1 (stereo not shown) [N-(1-acetylpyrrolidin-3-yl)-1-[5-(5-chloro-2-methoxypyridin-4-yl)-1H-pyrazole-3-carbonyl]piperidine-4-carboxamide]
[1]
  AC50: > 1000 nM

## COc1cc(-c2cc(C(=O)N3CCC(C(=O)NC4CCN(Cc5ccccc5)C4)CC3)n[nH]2)c(Cl)cn1 (stereo not shown) [N-(1-benzylpyrrolidin-3-yl)-1-[5-(5-chloro-2-methoxypyridin-4-yl)-1H-pyrazole-3-carbonyl]piperidine-4-carboxamide]
[1]
  AC50: > 1000 nM

## COc1cc(-c2cc(C(=O)N3CCC(C(=O)NC(C)C4CCC4)CC3)n[nH]2)c(F)cn1 (stereo not shown) [N-(1-cyclobutylethyl)-1-[5-(5-fluoro-2-methoxypyridin-4-yl)-1H-pyrazole-3-carbonyl]piperidine-4-carboxamide]
[1]
  AC50: > 1000 nM

## CS(=O)(=O)N1CCC(NC(=O)C2CCN(C(=O)c3cc(-c4ccncc4)[nH]n3)CC2)CC1 [N-(1-methanesulfonylpiperidin-4-yl)-1-[5-(pyridin-4-yl)-1H-pyrazole-3-carbonyl]piperidine-4-carboxamide]
[1]
  AC50: > 1000 nM

## CN1CCC(NC(=O)C2CCN(C(=O)c3cc(-c4ccncc4)[nH]n3)CC2)CC1 [N-(1-methylpiperidin-4-yl)-1-[5-(pyridin-4-yl)-1H-pyrazole-3-carbonyl]piperidine-4-carboxamide]
[1]
  AC50: > 1000 nM

## O=C(NC1CCCN(c2ccccc2)C1)C1CCN(C(=O)c2cc(-c3ccncc3)[nH]n2)CC1 (stereo not shown) [N-(1-phenylpiperidin-3-yl)-1-[5-(pyridin-4-yl)-1H-pyrazole-3-carbonyl]piperidine-4-carboxamide]
[1]
  AC50: > 1000 nM

## COc1cc(-c2cc(C(=O)N3CCC(C(=O)NC4CCN(C(C)(C)C)CC4)CC3)n[nH]2)c(Cl)cn1 [N-(1-tert-butylpiperidin-4-yl)-1-[5-(5-chloro-2-methoxypyridin-4-yl)-1H-pyrazole-3-carbonyl]piperidine-4-carboxamide]
[1]
  AC50: > 1000 nM

## CC(C)(C)CNC(=O)C1CCN(C(=O)c2cc(-c3ccncc3)[nH]n2)CC1 [N-(2,2-dimethylpropyl)-1-[5-(pyridin-4-yl)-1H-pyrazole-3-carbonyl]piperidine-4-carboxamide]
[1]
  AC50: > 1000 nM

## O=C(Nc1ccc2c(c1)OCCO2)C1CCCN(C(=O)c2cc(-c3ccncc3)[nH]n2)C1 (stereo not shown) [N-(2,3-dihydro-1,4-benzodioxin-6-yl)-1-[5-(pyridin-4-yl)-1H-pyrazole-3-carbonyl]piperidine-3-carboxamide]
[1]
  AC50: > 1000 nM

## Cc1cccc(C)c1NC(=O)C1CCN(C(=O)c2cc(-c3ccncc3)[nH]n2)CC1 [N-(2,6-dimethylphenyl)-1-[5-(pyridin-4-yl)-1H-pyrazole-3-carbonyl]piperidine-4-carboxamide]
[1]
  AC50: > 1000 nM

## CN(CCC#N)C(=O)C1CCN(C(=O)c2cc(-c3ccncc3)[nH]n2)CC1 [N-(2-cyanoethyl)-N-methyl-1-[5-(pyridin-4-yl)-1H-pyrazole-3-carbonyl]piperidine-4-carboxamide]
[1]
  AC50: > 1000 nM

## CCOCCNC(=O)C1CCN(C(=O)c2cc(-c3ccncc3)[nH]n2)CC1 [N-(2-ethoxyethyl)-1-[5-(pyridin-4-yl)-1H-pyrazole-3-carbonyl]piperidine-4-carboxamide]
[1]
  AC50: > 1000 nM

## CC1CCCCC1NC(=O)C1CCN(C(=O)c2cc(-c3ccncc3)[nH]n2)CC1 (stereo not shown) [N-(2-methylcyclohexyl)-1-[5-(pyridin-4-yl)-1H-pyrazole-3-carbonyl]piperidine-4-carboxamide]
[1]
  AC50: > 1000 nM

## O=C(NCCc1ccccc1)C1CCN(C(=O)c2cc(-c3ccncc3)[nH]n2)CC1 [N-(2-phenylethyl)-1-[5-(pyridin-4-yl)-1H-pyrazole-3-carbonyl]piperidine-4-carboxamide]
[1]
  AC50: > 1000 nM

## CC(CNC(=O)C1CCCN(C(=O)c2cc(-c3ccncc3)[nH]n2)C1)c1ccccc1 (stereo not shown) [N-(2-phenylpropyl)-1-[5-(pyridin-4-yl)-1H-pyrazole-3-carbonyl]piperidine-3-carboxamide]
[1]
  AC50: > 1000 nM

## Cc1ccc(NC(=O)C2CCN(C(=O)c3cc(-c4ccncc4)[nH]n3)CC2)cc1Cl [N-(3-chloro-4-methylphenyl)-1-[5-(pyridin-4-yl)-1H-pyrazole-3-carbonyl]piperidine-4-carboxamide]
[1]
  AC50: > 1000 nM

## O=C(Nc1cccc(Cl)c1)C1CCN(C(=O)c2cc(-c3ccncc3)[nH]n2)CC1 [N-(3-chlorophenyl)-1-[5-(pyridin-4-yl)-1H-pyrazole-3-carbonyl]piperidine-4-carboxamide]
[1]
  AC50: > 1000 nM
